Reference: US20070112022A1, “Piperidine derivatives as ccr5 receptor modulators” (priority 2003, published 2007)

These molecules were tested against recombinant human CCR5 receptor (Homo sapiens, UniProt P51681) (assay: in vitro radioligand binding assay: inhibition of iodinated MIP-1α binding to CCR5 membranes (scintillation proximity)). Details: displacement of 0.1 nM iodinated MIP-1α; membranes from Chinese hamster ovary cells expressing recombinant human CCR5; average if tested more than once.
Sequence of recombinant human CCR5 receptor (P51681 whole entry): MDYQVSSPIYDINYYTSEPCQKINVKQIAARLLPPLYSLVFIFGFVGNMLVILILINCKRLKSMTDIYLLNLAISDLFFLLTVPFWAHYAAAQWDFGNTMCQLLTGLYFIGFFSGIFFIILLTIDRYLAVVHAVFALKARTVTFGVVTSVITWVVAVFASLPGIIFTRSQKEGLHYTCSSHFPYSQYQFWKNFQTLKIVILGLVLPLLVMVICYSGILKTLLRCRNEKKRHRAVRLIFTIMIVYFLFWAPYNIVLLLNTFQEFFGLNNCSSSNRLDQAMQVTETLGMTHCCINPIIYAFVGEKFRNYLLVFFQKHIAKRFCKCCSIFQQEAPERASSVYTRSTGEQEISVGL
Protocol: The ability of compounds to inhibit the binding of MIP-1α was assessed by an in vitro radioligand binding assay. Membranes were prepared from Chinese hamster ovary cells which expressed the recombinant human CCR5 receptor. These membranes were incubated with 0.1 nM iodinated MIP-1α, scintillation proximity beads and various concentrations of the compounds of the invention in 96-well plates. The amount of iodinated MIP-1α bound to the receptor was determined by scintillation counting. Competition curves were obtained for compounds and the concentration of compound which displaced 50% of bound iodinated MIP-1α was calculated (IC50).
In Table VI the results are presented as Pic50 values. A Pic50 value is the negative log (to base 10) of the IC50 result, so an IC50 of 1 μM (that is 1×10^−6M) gives a Pic50 of 6. If a compound was tested more than once then the data below is an average of the probative tests results.

IC50	Structure (SMILES)
7.94 nM	CS(=O)(=O)c1ccc([C@@H](CCN2CCC(CNS(=O)(=O)c3ccc(-c4nnn[nH]4)cc3)CC2)c2cc(F)cc(F)c2)cc1 [Compound 19 (Table II), N-[(1-{(3R)-3-(3,5-difluorophenyl)-3-[4-(methylsulfonyl)phenyl]propyl}piperidin-4-yl)methyl]-4-(1H-tetrazol-5-yl)-benzenesulfonamide]
7.94 nM	CC(=O)Nc1ccc(S(=O)(=O)NCC2CCN(CC[C@@H](c3cc(F)cc(F)c3)C3CCN(S(C)(=O)=O)CC3)CC2)cc1 [Compound 4 (Table I), N-[4-({[(1-{(3R)-3-(3,5-difluorophenyl)-3-[1-(methylsulfonyl)piperidin-4-yl]propyl}piperidin-4-yl)methyl]amino}sulfonyl)phenyl]-acetamide]
50.1 nM	CS(=O)(=O)c1ccc([C@@H](CCN2CCC(CNS(=O)(=O)c3ccc(NS(=O)(=O)C(F)(F)F)cc3)CC2)c2cc(F)cc(F)c2)cc1 [Compound 16 (Table II), N-[(1-{(3R)-3-(3,5-difluorophenyl)-3-[4-(methylsulfonyl)phenyl]propyl}piperidin-4-yl)methyl]-4-{[(trifluoromethyl)sulfonyl]amino}-benzenesulfonamide]
